Test results reported in ChEMBL document CHEMBL2434921, “New synthetic aliphatic sulfonamido-quaternary ammonium salts as anticancer chemotherapeutic agents” (2013).
Values belong to the compound of their own block, whether it stands above or below them. Activity calls are given as the source filed them. The rule behind the calls is not given here.

Tests used:
NCI-H23 [1] = test: Growth inhibition of human NCI-H23 cells after 48 hrs by SRB assay; assay type: functional; details: NCI-H23, 48 h
HCT-15 [2] = test: Growth inhibition of human HCT15 cells after 48 hrs by SRB assay; assay type: functional; details: HCT-15, 48 h
[3] = biological target: Rho-related GTP-binding protein RhoB (Homo sapiens) (UniProt P62745); test: Transactivation of RhoB (unknown origin) transfected in human HeLa cells at 5 uM measured over 10 secs by dual luciferase reporter gene assay; assay type: cell-based
NUGC-3 [4] = test: Growth inhibition of human NUGC3 cells after 48 hrs by SRB assay; assay type: functional; details: NUGC-3, 48 h
ACHN [5] = test: Growth inhibition of human ACHN cells after 48 hrs by SRB assay; assay type: functional
MDA-MB-231 [6] = test: Growth inhibition of human MDA-MB-231 cells after 48 hrs by SRB assay; assay type: functional; details: MDA-MB-231, 48 h
PC-3 [7] = test: Growth inhibition of human PC3 cells after 48 hrs by SRB assay; assay type: functional; details: PC-3, 48 h
PC-3 [8] = test: Growth of human PC3 cells at 10 uM after 48 hrs by SRB assay; details: PC-3, 48 h
NUGC-3 [9] = test: Growth of human NUGC3 cells at 1 uM after 48 hrs by SRB assay; details: NUGC-3, 48 h
ACHN [10] = test: Growth of human ACHN cells at 10 uM after 48 hrs by SRB assay
HCT-15 [11] = test: Growth of human HCT15 cells at 3 uM after 48 hrs by SRB assay; details: HCT-15, 48 h
ACHN [12] = test: Growth of human ACHN cells at 0.1 uM after 48 hrs by SRB assay
ACHN [13] = test: Growth of human ACHN cells at 0.3 uM after 48 hrs by SRB assay
NUGC-3 [14] = test: Growth of human NUGC3 cells at 0.1 uM after 48 hrs by SRB assay; details: NUGC-3, 48 h
NUGC-3 [15] = test: Growth of human NUGC3 cells at 0.3 uM after 48 hrs by SRB assay; details: NUGC-3, 48 h
HCT-15 [16] = test: Growth of human HCT15 cells at 0.3 uM after 48 hrs by SRB assay; details: HCT-15, 48 h
NCI-H23 [17] = test: Growth of human NCI-H23 cells at 10 uM after 48 hrs by SRB assay; details: NCI-H23, 48 h
NCI-H23 [18] = test: Growth of human NCI-H23 cells at 0.3 uM after 48 hrs by SRB assay; details: NCI-H23, 48 h
MDA-MB-231 [19] = test: Growth of human MDA-MB-231 cells at 1 uM after 48 hrs by SRB assay; details: MDA-MB-231, 48 h
MDA-MB-231 [20] = test: Growth of human MDA-MB-231 cells at 10 uM after 48 hrs by SRB assay; details: MDA-MB-231, 48 h
MDA-MB-231 [21] = test: Growth of human MDA-MB-231 cells at 0.1 uM after 48 hrs by SRB assay; details: MDA-MB-231, 48 h
MDA-MB-231 [22] = test: Growth of human MDA-MB-231 cells at 3 uM after 48 hrs by SRB assay; values are per cent of control; details: MDA-MB-231, 48 h
PC-3 [23] = test: Growth inhibition of human PC3 cells at 1 uM after 48 hrs by SRB assay; values are per cent of control; details: PC-3, 48 h
PC-3 [24] = test: Growth inhibition of human PC3 cells at 3 uM after 48 hrs by SRB assay; values are per cent of control; details: PC-3, 48 h
ACHN [25] = test: Growth inhibition of human ACHN cells at 3 uM after 48 hrs by SRB assay; values are per cent of control
ACHN [26] = test: Growth inhibition of human ACHN cells at 1 uM after 48 hrs by SRB assay; values are per cent of control
NUGC-3 [27] = test: Growth inhibition of human NUGC3 cells at 3 uM after 48 hrs by SRB assay; values are per cent of control; details: NUGC-3, 48 h
PC-3 [28] = test: Growth inhibition of human PC3 cells at 0.1 uM after 48 hrs by SRB assay; values are per cent of control; details: PC-3, 48 h
PC-3 [29] = test: Growth inhibition of human PC3 cells at 0.3 uM after 48 hrs by SRB assay; values are per cent of control; details: PC-3, 48 h
HCT-15 [30] = test: Growth inhibition of human HCT15 cells at 1 uM after 48 hrs by SRB assay; values are per cent of control; details: HCT-15, 48 h
NUGC-3 [31] = test: Growth inhibition of human NUGC3 cells at 10 uM after 48 hrs by SRB assay; values are per cent of control; details: NUGC-3, 48 h
HCT-15 [32] = test: Growth inhibition of human HCT15 cells at 10 uM after 48 hrs by SRB assay; values are per cent of control; details: HCT-15, 48 h
NCI-H23 [33] = test: Growth inhibition of human NCI-H23 cells at 1 uM after 48 hrs by SRB assay; values are per cent of control; details: NCI-H23, 48 h
NCI-H23 [34] = test: Growth inhibition of human NCI-H23 cells at 3 uM after 48 hrs by SRB assay; values are per cent of control; details: NCI-H23, 48 h
HCT-15 [35] = test: Growth inhibition of human HCT15 cells at 0.1 uM after 48 hrs by SRB assay; values are per cent of control; details: HCT-15, 48 h
NCI-H23 [36] = test: Growth inhibition of human NCI-H23 cells at 0.1 uM after 48 hrs by SRB assay; values are per cent of control; details: NCI-H23, 48 h
MDA-MB-231 [37] = test: Growth inhibition of human MDA-MB-231 cells at 0.3 uM after 48 hrs by SRB assay; values are per cent of control; details: MDA-MB-231, 48 h

Sequence of Rho-related GTP-binding protein RhoB (Homo sapiens) (P62745 whole entry): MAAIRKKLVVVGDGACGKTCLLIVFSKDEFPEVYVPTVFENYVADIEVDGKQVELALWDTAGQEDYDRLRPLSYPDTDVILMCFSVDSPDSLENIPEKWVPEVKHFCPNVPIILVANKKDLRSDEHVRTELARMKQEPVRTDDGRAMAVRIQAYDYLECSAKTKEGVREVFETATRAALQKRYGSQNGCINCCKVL

GI50 (NCI-H23 [1]): 620 nM
GI50 (HCT-15 [2]): 1490 nM
Activity [3]: Active
GI50 (ACHN [5]): 1290 nM
GI50 (MDA-MB-231 [6]): 1120 nM
GI50 (PC-3 [7]): 560 nM
SMILES: CCCCCCCCCCCCCCCCS(=O)(=O)N(C)CC[N+](C)(CC)CC
GI50 (NUGC-3 [4]): 390 nM
growth, % of control at 10 µM (PC-3 [8]): -21.6%
growth, % of control at 1 µM (NUGC-3 [9]): 30.2%
growth, % of control at 10 µM (ACHN [10]): 5%
growth, % of control at 3 µM (HCT-15 [11]): 42.7%
growth, % of control at 0.1 µM (ACHN [12]): 90.4%
growth, % of control at 0.3 µM (ACHN [13]): 89.5%
growth, % of control at 0.1 µM (NUGC-3 [14]): 93.6%
growth, % of control at 0.3 µM (NUGC-3 [15]): 88.1%
growth, % of control at 0.3 µM (HCT-15 [16]): 100%
growth, % of control at 10 µM (NCI-H23 [17]): 0.4%
growth, % of control at 0.3 µM (NCI-H23 [18]): 90.5%
growth, % of control at 1 µM (MDA-MB-231 [19]): 68.4%
growth, % of control at 10 µM (MDA-MB-231 [20]): 15.6%
growth, % of control at 0.1 µM (MDA-MB-231 [21]): 98.5%
growth, % of control at 3 µM (MDA-MB-231 [22]): 35.7%
growth, % of control at 1 µM (PC-3 [23]): 50.7%
growth, % of control at 3 µM (PC-3 [24]): 8.6%
growth, % of control at 3 µM (ACHN [25]): 48.7%
growth, % of control at 1 µM (ACHN [26]): 72.7%
growth, % of control at 3 µM (NUGC-3 [27]): 9.2%
growth, % of control at 0.1 µM (PC-3 [28]): 100%
growth, % of control at 0.3 µM (PC-3 [29]): 92.8%
growth, % of control at 1 µM (HCT-15 [30]): 76.2%
growth, % of control at 10 µM (NUGC-3 [31]): 1.2%
growth, % of control at 10 µM (HCT-15 [32]): 21.1%
growth, % of control at 1 µM (NCI-H23 [33]): 51.3%
growth, % of control at 3 µM (NCI-H23 [34]): 22.5%
growth, % of control at 0.1 µM (HCT-15 [35]): 98.5%
growth, % of control at 0.1 µM (NCI-H23 [36]): 90.7%
growth, % of control at 0.3 µM (MDA-MB-231 [37]): 96.2%

GI50 (NCI-H23 [1]): 330 nM
GI50 (HCT-15 [2]): 1140 nM
Activity [3]: Active
GI50 (ACHN [5]): 1640 nM
GI50 (MDA-MB-231 [6]): 1170 nM
GI50 (PC-3 [7]): 300 nM
SMILES: CCCCCCCCCCCCCCS(=O)(=O)NCCC[N+](C)(C)CC
GI50 (NUGC-3 [4]): 290 nM
growth, % of control at 10 µM (PC-3 [8]): -11.5%
growth, % of control at 1 µM (NUGC-3 [9]): 34%
growth, % of control at 10 µM (ACHN [10]): 24.5%
growth, % of control at 3 µM (HCT-15 [11]): 36.9%
growth, % of control at 0.1 µM (ACHN [12]): 91.4%
growth, % of control at 0.3 µM (ACHN [13]): 91.4%
growth, % of control at 0.1 µM (NUGC-3 [14]): 85.1%
growth, % of control at 0.3 µM (NUGC-3 [15]): 69%
growth, % of control at 0.3 µM (HCT-15 [16]): 94.5%
growth, % of control at 10 µM (NCI-H23 [17]): -45.5%
growth, % of control at 0.3 µM (NCI-H23 [18]): 88.7%
growth, % of control at 1 µM (MDA-MB-231 [19]): 66.2%
growth, % of control at 10 µM (MDA-MB-231 [20]): 23.9%
growth, % of control at 0.1 µM (MDA-MB-231 [21]): 83.1%
growth, % of control at 3 µM (MDA-MB-231 [22]): 43.8%
growth, % of control at 1 µM (PC-3 [23]): 33.4%
growth, % of control at 3 µM (PC-3 [24]): 6.9%
growth, % of control at 3 µM (ACHN [25]): 42.5%
growth, % of control at 1 µM (ACHN [26]): 92.5%
growth, % of control at 3 µM (NUGC-3 [27]): 11.2%
growth, % of control at 0.1 µM (PC-3 [28]): 89.8%
growth, % of control at 0.3 µM (PC-3 [29]): 72.7%
growth, % of control at 1 µM (HCT-15 [30]): 68.2%
growth, % of control at 10 µM (NUGC-3 [31]): -4.7%
growth, % of control at 10 µM (HCT-15 [32]): 23.4%
growth, % of control at 1 µM (NCI-H23 [33]): 24%
growth, % of control at 3 µM (NCI-H23 [34]): -10.6%
growth, % of control at 0.1 µM (HCT-15 [35]): 97%
growth, % of control at 0.1 µM (NCI-H23 [36]): 93.3%
growth, % of control at 0.3 µM (MDA-MB-231 [37]): 86.4%

GI50 (NCI-H23 [1]): 550 nM
GI50 (HCT-15 [2]): 1610 nM
Activity [3]: Active
GI50 (ACHN [5]): 1310 nM
GI50 (MDA-MB-231 [6]): 1170 nM
GI50 (PC-3 [7]): 520 nM
SMILES: CCCCCCCCCCCCCCCCS(=O)(=O)N(C)CC[N+](CC)(CC)CC
GI50 (NUGC-3 [4]): 220 nM
growth, % of control at 10 µM (PC-3 [8]): -21.4%
growth, % of control at 1 µM (NUGC-3 [9]): 19.6%
growth, % of control at 10 µM (ACHN [10]): 15.4%
growth, % of control at 3 µM (HCT-15 [11]): 50.9%
growth, % of control at 0.1 µM (ACHN [12]): 92.6%
growth, % of control at 0.3 µM (ACHN [13]): 92.8%
growth, % of control at 0.1 µM (NUGC-3 [14]): 69.8%
growth, % of control at 0.3 µM (NUGC-3 [15]): 70.3%
growth, % of control at 0.3 µM (HCT-15 [16]): 87.6%
growth, % of control at 10 µM (NCI-H23 [17]): 3.4%
growth, % of control at 0.3 µM (NCI-H23 [18]): 93.7%
growth, % of control at 1 µM (MDA-MB-231 [19]): 65.5%
growth, % of control at 10 µM (MDA-MB-231 [20]): 20%
growth, % of control at 0.1 µM (MDA-MB-231 [21]): 87.3%
growth, % of control at 3 µM (MDA-MB-231 [22]): 37.4%
growth, % of control at 1 µM (PC-3 [23]): 47.5%
growth, % of control at 3 µM (PC-3 [24]): 11.3%
growth, % of control at 3 µM (ACHN [25]): 43.4%
growth, % of control at 1 µM (ACHN [26]): 70.4%
growth, % of control at 3 µM (NUGC-3 [27]): 5.8%
growth, % of control at 0.1 µM (PC-3 [28]): 95.5%
growth, % of control at 0.3 µM (PC-3 [29]): 84.7%
growth, % of control at 1 µM (HCT-15 [30]): 73.5%
growth, % of control at 10 µM (NUGC-3 [31]): -4%
growth, % of control at 10 µM (HCT-15 [32]): 21.8%
growth, % of control at 1 µM (NCI-H23 [33]): 44.3%
growth, % of control at 3 µM (NCI-H23 [34]): 15.5%
growth, % of control at 0.1 µM (HCT-15 [35]): 83%
growth, % of control at 0.1 µM (NCI-H23 [36]): 94%
growth, % of control at 0.3 µM (MDA-MB-231 [37]): 96.5%
